Patent US11026944B2, “Compositions and methods for treating insomnia” (Eisai R&D Management Co., Ltd., priority 2014, dated 2021)

Test system: subjects with insomnia
Assay: 201 Study: polysomnography (SE, LPS, WASO) dose-response
Type: in vivo, human
Protocol: This was a multi-center, randomized, double-blind, adaptive design, dose-response study in subjects with insomnia. Subjects were randomized to 1 of 6 doses of compound A (1 mg, 2.5 mg, 5 mg, 10 mg, 15 mg and 25 mg) or placebo.
The study had 2 phases: Prerandomization and Randomization. The Prerandomization Phase lasted up to 21 days and consisted of a Screening Period (Days-21 to -2) and a Baseline Period (Day-1). After the Baseline Period, all eligible subjects were randomized in a double-blind manner to receive compound A or placebo for 15 nights during the Treatment Period (Days 1 to 15). All subjects then received placebo in a single-blind manner, for 2 nights (Days 16 to 17) during the Rebound Insomnia Assessment Period (Days 16 to 18). […] All subjects came to the clinic for screening procedures. During the Screening Period, subjects completed the Sleep Diary each day. Polysomnographic sleep was measured during the Screening Period on 2 consecutive nights between Day-9 and Day-3. The 8-hour polysomnograms (PSGs) were started at the median habitual bedtime calculated from responses on the Sleep Diary, which were completed for 7 days before the first PSG night. These recordings served as both eligibility screening PSGs and as Baseline PSGs. Subjects could leave the clinic between the screening/Baseline PSG nights.
All subjects returned to the clinic on Day-1 for Baseline Period procedures. They remained in the clinic until Day 3. Morning assessments on Day 1 provided the Baseline values for the KSS, the Digit Symbol Substitution Test (DSST), and the Reaction Time Index (RTI). Assessments at 6 hours after waketime provided the Baseline values for the Waking Function Battery (WFB), and the Profile of Mood States-Brief (POMS-B). Subjects were then randomized to receive 1 of 6 doses of compound A or placebo for the next 15 days. Study drugs were tablets containing compound A-matched placebo or compound A of 1 mg, 2.5 mg, 5 mg, or 10 mg and to be ingested 30 minutes before the median habitual bedtime calculated from their Sleep Diary responses during the Screening Period. An 8-hour PSG, starting at the same bedtime as used for the screening and Baseline PSG nights, was recorded on the first 2 treatment nights (Days 1 and 2). The Sleep Diary continued to be completed each day in the clinic, and assessments of insomnia severity (ISI), next-day residual effects (KSS, DSST, and RTI) were conducted while subjects were in the clinic. On specified study days, plasma concentrations of compound A were assessed while subjects were in the clinic in the morning after awakening and at trough just before dosing.
Subjects continued to take compound A or placebo 30 minutes before their anticipated, self-selected bedtime and continued to complete the Sleep Diary each day while at home during the Treatment Period. On Day 14 of the Treatment Period, subjects returned to the clinic. They remained in the clinic for 4 nights and the intervening days until Day 18. Eight-hour PSGs were recorded each night in the clinic, to start at the median habitual bedtime calculated from responses on the Sleep Diary completed on Days 3 to 13. The Sleep Diary continued to be completed each day in the clinic, and the ISI, KSS, DSST, RTI, were administered at prespecified time points during the daytime hours.
In Table 5, “Baseline” was defined as the mean of the screening PSG 1 and 2, within −9 to −3 days of randomization. “LS Means Diff” refers to the differences between LS Means of Placebo and each compound A dose, “95% CI” means to 95% CI of LS Means Diff. “p-value” was analyzed using analysis of covariance (ANCOVA) with baseline as a covariate.
In Table 7, “Baseline” was defined as the mean of the screening PSG 1 and 2, within −9 to −3 days of randomization. “p-value” was analyzed using analysis of covariance (ANCOVA) with baseline as a covariate.
In Table 8, “Baseline” was defined as the mean of the screening PSG 1 and 2, within −9 to −3 days of randomization. […]

[1] = Days 14 & 15 minus Days 1 & 2, 1 mg nightly
[2] = Days 14 & 15 minus Days 1 & 2, 2.5 mg nightly
[3] = Days 14 & 15 minus Days 1 & 2, 5 mg nightly
[4] = Days 14 & 15 minus Days 1 & 2, 10 mg nightly
[5] = Days 14 & 15 minus Days 1 & 2, 15 mg nightly
[6] = Days 14 & 15 minus Days 1 & 2, 25 mg nightly

## Cc1ncc(OC[C@@]2(c3cccc(F)c3)C[C@H]2C(=O)Nc2ccc(F)cn2)c(C)n1 [Compound A, (1R,2 S)-2-(((2,4-dimethylpyrimidin-5-yl)oxy)methyl)-2-(3-fluorophenyl)-N-(5-fluoropyridin-2-yl) cyclopropanecarboxamide]
1 mg nightly
  Change from Baseline in LPS, Mean of Days 1 & 2: Geometric Mean Ratio (compound A/placebo): 0.77
  Change from Baseline in LPS, Mean of Days 14 & 15: Geometric Mean Ratio (compound A /placebo): 0.73
  Change from Baseline in SE, Mean of Days 1 & 2: LS Means Diff vs placebo: 4.57%
  Change from Baseline in SE, Mean of Days 1 & 2: Mean: 21.1%
  Change from Baseline in SE, Mean of Days 14 & 15: LS Means Diff vs placebo: 0.34%
  Change from Baseline in SE, Mean of Days 14 & 15: Mean: 17.5%
  Change from Baseline in WASO, Mean of Days 1 & 2: LS Means Diff vs placebo: -11.1 min
  Change from Baseline in WASO, Mean of Days 1 & 2: Mean: -60.9 min
  Change from Baseline in WASO, Mean of Days 14 & 15: LS Means Diff vs placebo: 5.7 min
  Change from Baseline in WASO, Mean of Days 14 & 15: Mean: -43.6 min
1 mg, Mean of Days 1/2
  LPS geometric mean ratio vs placebo, significance: not statistically significant
2.5 mg nightly
  Change from Baseline in LPS, Mean of Days 1 & 2: Geometric Mean Ratio (compound A/placebo): 0.55
  Change from Baseline in LPS, Mean of Days 14 & 15: Geometric Mean Ratio (compound A /placebo): 0.49
  Change from Baseline in SE, Mean of Days 1 & 2: LS Means Diff vs placebo: 4.44%
  Change from Baseline in SE, Mean of Days 1 & 2: Mean: 21.3%
  Change from Baseline in SE, Mean of Days 14 & 15: LS Means Diff vs placebo: 3.94%
  Change from Baseline in SE, Mean of Days 14 & 15: Mean: 20.7%
  Change from Baseline in WASO, Mean of Days 1 & 2: LS Means Diff vs placebo: -2.3 min
  Change from Baseline in WASO, Mean of Days 1 & 2: Mean: -51.1 min
  Change from Baseline in WASO, Mean of Days 14 & 15: LS Means Diff vs placebo: -2.3 min
  Change from Baseline in WASO, Mean of Days 14 & 15: Mean: -48.9 min
5 mg nightly
  Change from Baseline in LPS, Mean of Days 1 & 2: Geometric Mean Ratio (compound A/placebo): 0.60
  Change from Baseline in LPS, Mean of Days 14 & 15: Geometric Mean Ratio (compound A /placebo): 0.47
  Change from Baseline in SE, Mean of Days 1 & 2: LS Means Diff vs placebo: 5.74%
  Change from Baseline in SE, Mean of Days 1 & 2: Mean: 21.2%
  Change from Baseline in SE, Mean of Days 14 & 15: LS Means Diff vs placebo: 5.76%
  Change from Baseline in SE, Mean of Days 14 & 15: Mean: 21.0%
  Change from Baseline in WASO, Mean of Days 1 & 2: LS Means Diff vs placebo: -11.3 min
  Change from Baseline in WASO, Mean of Days 1 & 2: Mean: -55.6 min
  Change from Baseline in WASO, Mean of Days 14 & 15: LS Means Diff vs placebo: -10.7 min
  Change from Baseline in WASO, Mean of Days 14 & 15: Mean: -52.2 min
10 mg
  LPS, Days 1/2 compared to Days 14/15: further improvement in LPS over time
10 mg nightly
  Change from Baseline in LPS, Mean of Days 1 & 2: Geometric Mean Ratio (compound A/placebo): 0.54
  Change from Baseline in LPS, Mean of Days 14 & 15: Geometric Mean Ratio (compound A /placebo): 0.32
  Change from Baseline in SE, Mean of Days 1 & 2: LS Means Diff vs placebo: 8.09%
  Change from Baseline in SE, Mean of Days 1 & 2: Mean: 21.9%
  Change from Baseline in SE, Mean of Days 14 & 15: LS Means Diff vs placebo: 7.78%
  Change from Baseline in SE, Mean of Days 14 & 15: Mean: 21.7%
  Change from Baseline in WASO, Mean of Days 1 & 2: LS Means Diff vs placebo: -19.8 min
  Change from Baseline in WASO, Mean of Days 1 & 2: Mean: -56.7 min
  Change from Baseline in WASO, Mean of Days 14 & 15: LS Means Diff vs placebo: -14.7 min
  Change from Baseline in WASO, Mean of Days 14 & 15: Mean: -48.5 min
15 mg nightly
  Change from Baseline in LPS, Mean of Days 1 & 2: Geometric Mean Ratio (compound A/placebo): 0.52
  Change from Baseline in LPS, Mean of Days 14 & 15: Geometric Mean Ratio (compound A /placebo): 0.41
  Change from Baseline in SE, Mean of Days 1 & 2: LS Means Diff vs placebo: 10.06%
  Change from Baseline in SE, Mean of Days 1 & 2: Mean: 23.8%
  Change from Baseline in SE, Mean of Days 14 & 15: LS Means Diff vs placebo: 7.89%
  Change from Baseline in SE, Mean of Days 14 & 15: Mean: 21.2%
  Change from Baseline in WASO, Mean of Days 1 & 2: LS Means Diff vs placebo: -29.3 min
  Change from Baseline in WASO, Mean of Days 1 & 2: Mean: -66.1 min
  Change from Baseline in WASO, Mean of Days 14 & 15: LS Means Diff vs placebo: -20.8 min
  Change from Baseline in WASO, Mean of Days 14 & 15: Mean: -53.4 min
25 mg nightly
  Change from Baseline in LPS, Mean of Days 1 & 2: Geometric Mean Ratio (compound A/placebo): 0.39
  Change from Baseline in LPS, Mean of Days 14 & 15: Geometric Mean Ratio (compound A /placebo): 0.34
  Change from Baseline in SE, Mean of Days 1 & 2: LS Means Diff vs placebo: 10.13%
  Change from Baseline in SE, Mean of Days 1 & 2: Mean: 22.7%
  Change from Baseline in SE, Mean of Days 14 & 15: LS Means Diff vs placebo: 8.87%
  Change from Baseline in SE, Mean of Days 14 & 15: Mean: 21.4%
  Change from Baseline in WASO, Mean of Days 1 & 2: LS Means Diff vs placebo: -25.8 min
  Change from Baseline in WASO, Mean of Days 1 & 2: Mean: -62.3 min
  Change from Baseline in WASO, Mean of Days 14 & 15: LS Means Diff vs placebo: -21.5 min
  Change from Baseline in WASO, Mean of Days 14 & 15: Mean: -53.9 min
[1]
  SE (B)-(A) Potential Habituation Effect: LS Means Diff vs placebo: −3.3%
  SE (B)-(A) Potential Habituation Effect: Mean: −4.0%
  WASO (B)-(A) Potential Habituation Effect: LS Means Diff vs placebo: 13.2 min
  WASO (B)-(A) Potential Habituation Effect: Mean: 18.0 min
[2]
  SE (B)-(A) Potential Habituation Effect: LS Means Diff vs placebo: 0.3%
  SE (B)-(A) Potential Habituation Effect: Mean: −0.5%
  WASO (B)-(A) Potential Habituation Effect: LS Means Diff vs placebo: -2.9 min
  WASO (B)-(A) Potential Habituation Effect: Mean: 2.2 min
[3]
  SE (B)-(A) Potential Habituation Effect: LS Means Diff vs placebo: 1.0%
  SE (B)-(A) Potential Habituation Effect: Mean: 0.1%
  WASO (B)-(A) Potential Habituation Effect: LS Means Diff vs placebo: -2.9 min
  WASO (B)-(A) Potential Habituation Effect: Mean: 2.7 min
[4]
  SE (B)-(A) Potential Habituation Effect: LS Means Diff vs placebo: 0.3%
  SE (B)-(A) Potential Habituation Effect: Mean: −0.7%
  WASO (B)-(A) Potential Habituation Effect: LS Means Diff vs placebo: 2.8 min
  WASO (B)-(A) Potential Habituation Effect: Mean: 9.3 min
[5]
  SE (B)-(A) Potential Habituation Effect: LS Means Diff vs placebo: −1.3%
  SE (B)-(A) Potential Habituation Effect: Mean: −2.3%
  WASO (B)-(A) Potential Habituation Effect: LS Means Diff vs placebo: 5.2 min
  WASO (B)-(A) Potential Habituation Effect: Mean: 11.8 min
[6]
  SE (B)-(A) Potential Habituation Effect: LS Means Diff vs placebo: −1.1%
  SE (B)-(A) Potential Habituation Effect: Mean: −2.1%
  WASO (B)-(A) Potential Habituation Effect: LS Means Diff vs placebo: 2.7 min
  WASO (B)-(A) Potential Habituation Effect: Mean: 9.3 min
Days 14 & 15 vs Days 1 & 2, 1 mg nightly
  LPS (B)-(A) Potential Habituation Effect: Geometric Mean Ratio (compound A/placebo): 0.93
Days 14 & 15 vs Days 1 & 2, 2.5 mg nightly
  LPS (B)-(A) Potential Habituation Effect: Geometric Mean Ratio (compound A/placebo): 0.90
Days 14 & 15 vs Days 1 & 2, 5 mg nightly
  LPS (B)-(A) Potential Habituation Effect: Geometric Mean Ratio (compound A/placebo): 0.77
Days 14 & 15 vs Days 1 & 2, 10 mg nightly
  LPS (B)-(A) Potential Habituation Effect: Geometric Mean Ratio (compound A/placebo): 0.60
Days 14 & 15 vs Days 1 & 2, 15 mg nightly
  LPS (B)-(A) Potential Habituation Effect: Geometric Mean Ratio (compound A/placebo): 0.76
Days 14 & 15 vs Days 1 & 2, 25 mg nightly
  LPS (B)-(A) Potential Habituation Effect: Geometric Mean Ratio (compound A/placebo): 0.89
All doses
  WASO, Days 1/2 compared to Days 14/15: no statistical evidence of an increase or decrease in WASO
All other doses (2.5-25 mg), Mean of Days 1/2
  LPS geometric mean ratios vs placebo, significance: evidence of statistical significance
Mean of Days 1/2, doses of 10 mg and above
  WASO change from baseline vs placebo, significance: statistically significant against placebo
Mean of Days 14/15, doses 15 mg and above
  WASO change from baseline vs placebo, significance: statistically significant against placebo
